Calls of active or inactive are those of the source. The calls are words filed in the database; no cut-off is given here.
Legend:
[1] = Octanol-water partition coefficient, log P of the compound
[2] = system: Rattus norvegicus; test: Antiarrhythmic activity in Wistar rat invasive arterial pressure model assessed as reduction of heart rate at 0.1 mg/kg, iv; type: functional, organism-based; set-up: dose 0.1 mg/kg
[3] = system: Rattus norvegicus; test: Antihypertensive activity in Wistar rat invasive arterial pressure model assessed as reduction of systolic pressure at 1 mg/kg, iv; type: functional, organism-based; set-up: dose 1 mg/kg; details: Artery
[4] = system: Rattus norvegicus; test: Antihypertensive activity in Wistar rat invasive arterial pressure model assessed as reduction of diastolic pressure at 1 mg/kg, iv; type: functional, organism-based; set-up: dose 1 mg/kg; details: Artery
[5] = system: Rattus norvegicus; test: Antihypertensive activity in spontaneous hypertensive rat model assessed as reduction of diastolic pressure at 0.1 mg/kg, po after 50 mins; type: functional, organism-based; set-up: dose 0.1 mg/kg
[6] = system: Rattus norvegicus; test: Antiarrhythmic activity in spontaneous hypertensive rat model assessed as reduction of heart rate at 0.1 mg/kg, po after 120 mins; type: functional, organism-based; set-up: dose 0.1 mg/kg
[7] = system: Rattus norvegicus; test: Antiarrhythmic activity in spontaneous hypertensive rat model assessed as reduction of heart rate at 0.1 mg/kg, po after 40 mins; type: functional, organism-based; set-up: dose 0.1 mg/kg
[8] = system: Rattus norvegicus; test: Antihypertensive activity in spontaneous hypertensive rat model assessed as reduction of diastolic pressure at 0.1 mg/kg, po after 120 mins; type: functional, organism-based; set-up: dose 0.1 mg/kg
[9] = system: Rattus norvegicus; test: Antihypertensive activity in spontaneous hypertensive rat model assessed as reduction of systolic pressure at 0.1 mg/kg, po after 120 mins; type: functional, organism-based; set-up: dose 0.1 mg/kg
[10] = system: Rattus norvegicus; test: Antihypertensive activity in Wistar rat invasive arterial pressure model assessed as reduction of systolic pressure at 0.1 mg/kg, iv; type: functional, organism-based; set-up: dose 0.1 mg/kg; details: Artery
[11] = system: Rattus norvegicus; test: Antihypertensive activity in Wistar rat invasive arterial pressure model assessed as reduction of diastolic pressure at 0.1 mg/kg, iv; type: functional, organism-based; set-up: dose 0.1 mg/kg; details: Artery
[12] = system: Rattus norvegicus; test: Antihypertensive activity in spontaneous hypertensive rat model assessed as reduction of systolic pressure at 0.1 mg/kg, po after 50 mins; type: functional, organism-based; set-up: dose 0.1 mg/kg

logP [1]	SMILES	Activity [2]	Activity [3]	Activity [4]	further results
2.03	CC(C)(C)c1cc(CN2CCSCC2)c(O)c(CN2CCSCC2)c1	Active	Active	Active	
1.96	CC(C)(C)c1ccc(O)c(CN2CCSCC2)c1	Active	Active	Active	
> 3.05	Oc1ccc(Cl)cc1CN1CCSCC1	Active	Active	Active	

Further lines, the compound ahead of its results:

SMILES	logP [1]	Activity [2]	Activity [3]	Activity [4]	further results
CCOC(=O)C1=C(C)NC(C)=C(C(=O)OCC)C1c1cc(CN2CCOCC2)c(O)c(CN2CCOCC2)c1	2.7	Active			Activity [5]: Active; Activity [6]: Active; Activity [7]: Active; Activity [8]: Active; Activity [9]: Active; Activity [10]: Active; Activity [11]: Active; Activity [12]: Active
C[C@H](CS)C(=O)N1CCC[C@H]1C(=O)O [CAPTOPRIL]	1.02				
CCCCc1nc(Cl)c(CO)n1Cc1ccc(-c2ccccc2-c2nn[nH]n2)cc1 [LOSARTAN]	4.01				

Source: ChEMBL document CHEMBL1250504, “Antihypertensive and antiarrhythmic properties of a para-hydroxy[bis(ortho-morpholinylmethyl)]phenyl-1,4-DHP compound: comparison with other compounds of the same kind and relationship with logP values” (Eur J Med Chem, 2010)
